These results are taken from patent EP1247803A2, “Indolinone compounds suitable for modulation of protein kinases” (Sugen, Inc., priority 1996, dated 1998).

T1 sequence (P35918 20-1345): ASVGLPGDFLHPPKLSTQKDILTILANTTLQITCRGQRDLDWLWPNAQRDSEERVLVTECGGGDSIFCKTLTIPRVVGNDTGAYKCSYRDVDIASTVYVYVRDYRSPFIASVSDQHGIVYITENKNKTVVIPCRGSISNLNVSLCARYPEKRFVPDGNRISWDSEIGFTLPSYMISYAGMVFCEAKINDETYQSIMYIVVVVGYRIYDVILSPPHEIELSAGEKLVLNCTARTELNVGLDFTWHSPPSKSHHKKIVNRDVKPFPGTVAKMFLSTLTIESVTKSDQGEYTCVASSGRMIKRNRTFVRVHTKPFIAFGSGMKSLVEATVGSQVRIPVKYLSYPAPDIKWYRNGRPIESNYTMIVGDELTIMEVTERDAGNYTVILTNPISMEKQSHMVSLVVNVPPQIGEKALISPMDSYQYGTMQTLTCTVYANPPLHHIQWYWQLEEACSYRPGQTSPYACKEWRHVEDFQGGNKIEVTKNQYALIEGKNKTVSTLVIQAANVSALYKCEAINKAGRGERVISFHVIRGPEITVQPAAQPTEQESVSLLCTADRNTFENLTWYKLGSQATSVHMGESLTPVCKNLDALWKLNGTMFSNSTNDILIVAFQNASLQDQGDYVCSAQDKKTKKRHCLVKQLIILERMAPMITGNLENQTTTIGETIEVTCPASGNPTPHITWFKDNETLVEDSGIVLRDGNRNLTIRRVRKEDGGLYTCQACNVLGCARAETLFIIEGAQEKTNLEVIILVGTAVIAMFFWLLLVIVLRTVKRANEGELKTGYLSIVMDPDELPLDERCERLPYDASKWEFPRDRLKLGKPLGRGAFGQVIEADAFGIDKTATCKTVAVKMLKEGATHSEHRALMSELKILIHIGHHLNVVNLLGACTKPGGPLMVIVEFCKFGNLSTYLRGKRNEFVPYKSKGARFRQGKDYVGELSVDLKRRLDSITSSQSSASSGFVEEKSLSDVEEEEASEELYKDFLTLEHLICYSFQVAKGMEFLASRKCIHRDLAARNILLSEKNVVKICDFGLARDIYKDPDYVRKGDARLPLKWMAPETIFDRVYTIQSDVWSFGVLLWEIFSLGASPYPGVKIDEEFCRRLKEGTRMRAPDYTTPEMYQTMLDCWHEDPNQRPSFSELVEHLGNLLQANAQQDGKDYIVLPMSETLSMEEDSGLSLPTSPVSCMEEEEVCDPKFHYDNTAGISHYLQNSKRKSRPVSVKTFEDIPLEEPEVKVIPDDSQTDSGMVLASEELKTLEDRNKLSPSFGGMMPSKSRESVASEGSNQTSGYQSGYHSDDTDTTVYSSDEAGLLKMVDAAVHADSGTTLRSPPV

The assay has as its target T1, FLK-1 receptor (Mus musculus, UniProt P35918).
T1 construct: expressed in transfected cells; host or cells: NIH3T3 C7#3
The experiment in a line: FLK-1 ELISA (kinase activity of the FLK-1 receptor in FLK-1/NIH3T3 cells, VEGF stimulated). It counts as cell-based. Further details: concentration or dose not given beside the values. A digest of the protocol: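 NIH3T3 C7#3 cells expressing FLK-1 were seeded at 25.000 cells/well, serum-starved overnight in 0.1% FBS, then treated with compound for two hours at 37°C (final DMSO 0.5%) before VEGF stimulation. Receptor was captured on anti-rabbit IgG-coated ELISA plates bearing affinity-purified anti-FLK-1 antiserum.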
As to `CNS(=O)(=O)c1ccc2c(c1)C(=Cc1ccc([N+](=O)[O-])c(O)c1)C(=O)N2` [10724/D04], the “Fik Kinase %Inhibition” value was found to be 0.5%. With `O=C1Nc2ccc(I)cc2C1=Cc1c(Br)cnn1-c1ccc(Cl)cc1` [10725/B10], the “Fik Kinase %Inhibition” value is 5.1%.

On to `Cc1c(Br)cc(Br)c2c1C(=Cc1c(Br)cnn1-c1ccc(Cl)cc1)C(=O)N2` [10725/A10], for which the “Fik Kinase %Inhibition” value is -3.2%. With `CNS(=O)(=O)c1ccc2c(c1)C(=Cc1ccc(N(C)C)c3ccccc13)C(=O)N2` [10724/D02] the figure was 12.4%. The result for `O=C1Nc2ccc(S(=O)(=O)N3CCOCC3)cc2C1=Cc1ccc(F)cc1` [10717/F05] reads 3.2%; that for `CC(C)c1cc(C=C2C(=O)Nc3ccc(I)cc32)cc(C(C)C)c1O` [10724/B06], 13.4%. The result for `CC(C)(C)c1cc(C=C2C(=O)Nc3ccc(CCCl)cc32)c(O)c(C(C)(C)C)c1` [10723/G11] reads -4.1%. Consider `Cc1c(Br)ccc2c1C(=Cc1ccc(N(C)C)c3ccccc13)C(=O)N2` [10724/C02], for which the “Fik Kinase %Inhibition” value is -0.3%. For `Cc1csc2sc(C=C3C(=O)Nc4ccc(I)cc43)c(C)c12` [10724/B11], the “Fik Kinase %Inhibition” value is given as 9.0%. With `CC(C)c1cc(C=C2C(=O)Nc3c(Br)cc(Br)cc32)cc(C(C)C)c1O` [10724/A06] the figure was -3.7%; with `O=C1Nc2ccc(S(=O)(=O)Nc3ccc(C(F)(F)F)cc3)cc2C1=Cc1cccn1-c1ccc(Cl)cc1` [10724/E09], 14.3%; with `CCc1ccc(C=C2C(=O)Nc3ccc(CCCl)cc32)o1` [10724/G10], 7.0%.

As for `Cc1c(Br)ccc2c1C(=Cc1cc3c4c(c1O)CCCN4CCC3)C(=O)N2` [10724/C05], the “Fik Kinase %Inhibition” value was -18.6%. The result for `Cc1csc2sc(C=C3C(=O)Nc4ccc(S(=O)(=O)Nc5ccc(C(F)(F)F)cc5)cc43)c(C)c12` [10724/E11] reads 5.1%; that for `CC(C)c1cc(C=C2C(=O)Nc3ccc(CCCl)cc32)cc(C(C)C)c1O` [10724/G06], 0.1%; that for `O=C1Nc2ccc(CCCl)cc2C1=Cc1ccc(O)c([N+](=O)[O-])c1` [10724/G03], -8.4%. With `CNS(=O)(=O)c1ccc2c(c1)C(=Cc1sc3scc(C)c3c1C)C(=O)N2` [10724/D11] the figure was 14.9%. The result for `CCc1ccc(C=C2C(=O)Nc3ccc(I)cc32)o1` [10724/B10] reads 8.5%.

Regarding `Cc1csc2sc(C=C3C(=O)Nc4ccc(CCCl)cc43)c(C)c12` [10724/G11], the “Fik Kinase %Inhibition” value was determined as 6.8%.

Regarding `O=C1Nc2ccc(S(=O)(=O)Nc3ccc(C(F)(F)F)cc3)cc2C1=Cc1cc2c3c(c1O)CCCN3CCC2` [10724/E05], the “Fik Kinase %Inhibition” value was 13.8%. With `O=C1Nc2ccc(I)cc2C1=Cc1ccc(N2CCOCC2)cc1` [10725/B08], the “Fik Kinase %Inhibition” value is on record as -24.1%. The result for `Cn1cccc1C=C1C(=O)Nc2ccc(S(=O)(=O)N3CCOCC3)cc21` [10717/F04] reads -0.1%; that for `O=C1Nc2ccc(CCCl)cc2C1=Cc1cc2ccccc2o1` [10724/G07], -1.9%. Take `Cc1cc(C=C2C(=O)Nc3c(Br)cc(Br)cc32)[nH]n1` [10725/A05]: the “Fik Kinase %Inhibition” value is listed as -13.9%. The result for `O=C1Nc2ccc(S(=O)(=O)N3CCOCC3)cc2C1=Cc1c[nH]c2ccccc12` [10717/F06] reads 8.9%.

Turning to `Cc1c(Br)cc(Br)c2c1C(=Cc1c[nH]cn1)C(=O)N2` [10725/A11], the “Fik Kinase %Inhibition” value is -21.9%.

On to `CCc1ccc(C=C2C(=O)Nc3ccc(S(=O)(=O)NC)cc32)o1` [10724/D10], for which the “Fik Kinase %Inhibition” value was found to be 3.7%. Consider `COC(=O)Cc1c(Cl)[nH]c(C=C2C(=O)Nc3c(Br)cc(Br)c(C)c32)c1C(=O)OC` [10725/A09], for which the “Fik Kinase %Inhibition” value was -13.9%.

In the case of `COC(=O)Cc1c(Cl)[nH]c(C=C2C(=O)Nc3ccc(I)cc32)c1C(=O)OC` [10725/B09], the “Fik Kinase %Inhibition” value worked out at 0.4%. `O=CN1CCN(c2ccc(C=C3C(=O)Nc4c(Br)cc(Br)cc43)cc2)CC1` [10725/A07]: the “Fik Kinase %Inhibition” value is listed as -12.3%. With `O=C1Nc2ccc(I)cc2C1=Cc1cccn1-c1ccc(Cl)cc1` [10724/B09] the figure was 3.5%. The result for `CN(C)c1ccc(C=C2C(=O)Nc3c(Br)cc(Br)cc32)c2ccccc12` [10724/A02] reads 1.8%.

As to `COc1cccc(O)c1C=C1C(=O)Nc2ccc(S(=O)(=O)Nc3ccc(C(F)(F)F)cc3)cc21` [10717/E10], the “Fik Kinase %Inhibition” value was found to be 4.7%.

Take `CN(C)c1ccc(C=C2C(=O)Nc3ccc(CCCl)cc32)c2ccccc12` [10724/G02]: the “Fik Kinase %Inhibition” value stood at 15.1%.

In the case of `Cc1c(Br)ccc2c1C(=Cc1ccc([N+](=O)[O-])c(O)c1)C(=O)N2` [10724/C04], the “Fik Kinase %Inhibition” value was -18.6%. With `O=C1Nc2ccc(S(=O)(=O)Nc3ccc(C(F)(F)F)cc3)cc2C1=Cc1cc2ccccc2o1` [10724/E07] the figure was -3.6%; with `Cc1c(Br)ccc2c1C(=Cc1cccn1-c1ccc(Cl)cc1)C(=O)N2` [10724/C09], 9.3%. Regarding `CCc1ccc(C=C2C(=O)Nc3ccc(Br)c(C)c32)o1` [10724/C10], the “Fik Kinase %Inhibition” value was -2.3%. The result for `CNS(=O)(=O)c1ccc2c(c1)C(=Cc1cccn1-c1ccc(Cl)cc1)C(=O)N2` [10724/D09] reads 0.9%; that for `O=C1Nc2ccc(CCCl)cc2C1=Cc1ccc([N+](=O)[O-])c(O)c1` [10724/G04], -7.9%; that for `COc1ccc(Br)c(C=C2C(=O)Nc3ccc(I)cc32)c1O` [10725/B03], 4.9%. With `O=C1Nc2ccc(CCCl)cc2C1=Cc1cccc(Br)c1` [10723/G10] the entry was “. 3.5%”; with `CN(C)c1ccc(C=C2C(=O)Nc3ccc(S(=O)(=O)Nc4ccc(C(F)(F)F)cc4)cc32)c2ccccc12` [10724/E02], 17.7%.

`Cc1c(Br)ccc2c1C(=Cc1sc3scc(C)c3c1C)C(=O)N2` [10724/C11]: the “Fik Kinase %Inhibition” value amounted to 10.3%. The result for `O=C1Nc2c(Br)cc(Br)cc2C1=Cc1cccn1-c1ccc(Cl)cc1` [10724/A09] reads -5.2%; that for `COc1ccc(Br)c(C=C2C(=O)Nc3c(Br)cc(Br)cc32)c1O` [10725/A03], 3.6%. On to `O=C1Nc2ccc(I)cc2C1=Cc1cc2ccccc2o1` [10724/B07], for which the “Fik Kinase %Inhibition” value was -1.8%. `Cc1c(Br)ccc2c1C(=Cc1cc3ccccc3o1)C(=O)N2` [10724/C07]: the “Fik Kinase %Inhibition” value is on record as -1.2%. With `CNS(=O)(=O)c1ccc2c(c1)C(=Cc1ccc(O)c([N+](=O)[O-])c1)C(=O)N2` [10724/D03] the figure was 0.1%.

For the molecule `O=C1Nc2ccc(I)cc2C1=Cc1ccc(O)c([N+](=O)[O-])c1` [10724/B03], the “Fik Kinase %Inhibition” value was -48.9%. With `O=C1Nc2c(Br)cc(Br)cc2C1=Cc1ccc(N2CCOCC2)cc1` [10725/A08] the figure was -2.9%.
